Data reported in patent US20250270200A1, “CTPS1 INHIBITORS AND USES THEREOF” (Nimbus Clotho, Inc., priority 2022, published 2025).
Structures can show the parent of a compound that is named as a salt.

Target: T1, human CTPS1 (Homo sapiens, UniProt P17812)
T1 sequence (P17812 1-591): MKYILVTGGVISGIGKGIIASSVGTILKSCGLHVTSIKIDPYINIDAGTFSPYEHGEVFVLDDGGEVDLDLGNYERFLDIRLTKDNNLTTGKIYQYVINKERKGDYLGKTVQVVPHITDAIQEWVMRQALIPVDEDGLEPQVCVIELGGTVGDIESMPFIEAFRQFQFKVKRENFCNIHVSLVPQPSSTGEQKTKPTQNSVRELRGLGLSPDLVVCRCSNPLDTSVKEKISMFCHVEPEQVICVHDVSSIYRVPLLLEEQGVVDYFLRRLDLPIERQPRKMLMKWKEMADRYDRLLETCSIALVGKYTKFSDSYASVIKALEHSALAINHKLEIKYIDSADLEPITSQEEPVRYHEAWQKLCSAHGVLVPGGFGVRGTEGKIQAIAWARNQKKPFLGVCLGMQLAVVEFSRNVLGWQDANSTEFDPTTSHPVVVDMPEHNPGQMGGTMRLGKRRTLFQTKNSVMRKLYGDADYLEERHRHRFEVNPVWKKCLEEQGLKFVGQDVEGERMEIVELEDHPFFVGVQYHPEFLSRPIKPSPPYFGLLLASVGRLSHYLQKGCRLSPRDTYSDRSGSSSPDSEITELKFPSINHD
Test: ADP-Glo assay, human CTPS1 enzyme inhibition
Type: biochemical
Details: wild-type human CTPS1, 25 nM enzyme; ADP-Glo; read-out: ADP-Glo_WT_hCTPS1—25 nM_IC50 (IC50)
Procedure, shortened: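 Full-length tagged human CTPS1 (25 nM) pre-incubated 10 min at 25° C with compound, then 10 min with ATP (120 μM) and UTP (160 μM); reaction started with L-glutamine (100 μM) and GTP (60 μM), 1% DMSO, in HEPES pH 7.4, 10 mM Mg2+, 5 mM KCl, 2 mM DTT. Run within linear phase at 25° C; ADP measured by ADP-Glo luminescence.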

Compound	IC50 [nM]
CCOc1cncc(-c2cnc(C(=O)N[C@@H](CN3CCN(C4CC4)CC3)c3cc(NS(=O)(=O)C4CC4)ncn3)s2)n1 [I-248, (S)-N-(1-(6-(cyclopropanesulfonamido)pyrimidin-4-yl)-2-(4-cyclopropylpiperazin-1-yl)ethyl)-5-(6-ethoxypyrazin-2-yl)thiazole-2-carboxamide]	25 to 50
CCOc1cncc(-c2cnc(C(=O)N[C@H](CN3CCN(C4CC4)CC3)c3cc(NS(=O)(=O)C4CC4)ncn3)s2)n1 [I-249, (R)-N-(1-(6-(cyclopropanesulfonamido)pyrimidin-4-yl)-2-(4-cyclopropylpiperazin-1-yl)ethyl)-5-(6-ethoxypyrazin-2-yl)thiazole-2-carboxamide]	25 to 50
CCOc1cncc(-c2cnc(C(=O)N[C@@H](CN3CCCC3)c3cc(NS(=O)(=O)C4CC4)ncn3)s2)n1 [I-250, (S)-N-(1-(6-(cyclopropanesulfonamido)pyrimidin-4-yl)-2-(pyrrolidin-1-yl)ethyl)-5-(6-ethoxypyrazin-2-yl)thiazole-2-carboxamide]	25 to 50
CCOc1cncc(-c2cnc(C(=O)N[C@H](CN3CCCC3)c3cc(NS(=O)(=O)C4CC4)ncn3)s2)n1 [I-251, (R)-N-(1-(6-(cyclopropanesulfonamido)pyrimidin-4-yl)-2-(pyrrolidin-1-yl)ethyl)-5-(6-ethoxypyrazin-2-yl)thiazole-2-carboxamide]	25 to 50
CCOc1cncc(-c2cnc(C(=O)N[C@@H](CN3C[C@H]4C[C@@H]3CO4)c3cncc(NS(=O)(=O)C4CC4)n3)s2)n1 [I-252, N-((S)-2-((1R,4R)-2-oxa-5-azabicyclo[2.2.1]heptan-5-yl)-1-(6-(cyclopropanesulfonamido)pyrazin-2-yl)ethyl)-5-(6-ethoxypyrazin-2-yl)thiazole-2-carboxamide, formic acid salt]	25 to 50
CCOc1cncc(-c2cnc(C(=O)N[C@H](CN3C[C@H]4C[C@@H]3CO4)c3cncc(NS(=O)(=O)C4CC4)n3)s2)n1 [I-253, N-((R)-2-((1R,4R)-2-oxa-5-azabicyclo[2.2.1]heptan-5-yl)-1-(6-(cyclopropanesulfonamido)pyrazin-2-yl)ethyl)-5-(6-ethoxypyrazin-2-yl)thiazole-2-carboxamide, formic acid salt]	50 to 100
CCOc1cncc(-c2cnc(C(=O)N[C@@H](CO)c3cc(NS(=O)(=O)C4CC4)ccn3)s2)n1 [I-262, (R)-N-(1-(4-(cyclopropanesulfonamido)pyridin-2-yl)-2-hydroxyethyl)-5-(6-ethoxypyrazin-2-yl)thiazole-2-carboxamide]	25 to 50
CCOc1cncc(-c2cnc(C(=O)N[C@H](c3cc(NS(=O)(=O)C4CC4)ccn3)[C@@H](C)O)s2)n1 [I-264, N-((1R,2R)-1-(4-(cyclopropanesulfonamido)pyridin-2-yl)-2-hydroxypropyl)-5-(6-ethoxypyrazin-2-yl)thiazole-2-carboxamide]	5 to 25
CCOc1cncc(-c2cnc(C(=O)N[C@@H](c3cc(NS(=O)(=O)C4CC4)ccn3)[C@@H](C)O)s2)n1 [I-265, N-((1S,2R)-1-(4-(cyclopropanesulfonamido)pyridin-2-yl)-2-hydroxypropyl)-5-(6-ethoxypyrazin-2-yl)thiazole-2-carboxamide]	5 to 25
CCOc1cncc(-c2cnc(C(=O)N[C@H](c3cc(NS(=O)(=O)C4CC4)ccn3)[C@H](C)O)s2)n1 [I-266, N-((1R,2S)-1-(4-(cyclopropanesulfonamido)pyridin-2-yl)-2-hydroxypropyl)-5-(6-ethoxypyrazin-2-yl)thiazole-2-carboxamide]	5 to 25
CCOc1cncc(-c2cnc(C(=O)N[C@H](c3cc(NS(=O)(=O)C4CC4)ccn3)[C@@H](C)O)s2)n1 [I-267, N-((1R,2R)-1-(4-(cyclopropanesulfonamido)pyridin-2-yl)-2-hydroxypropyl)-5-(6-ethoxypyrazin-2-yl)thiazole-2-carboxamide]	5 to 25
CCOc1cncc(-c2cnc(C(=O)N[C@H](COC)c3ccnc(NS(=O)(=O)C4CC4)n3)s2)n1 [I-268, (S)-N-(1-(2-(cyclopropanesulfonamido)pyrimidin-4-yl)-2-methoxyethyl)-5-(6-ethoxypyrazin-2-yl)thiazole-2-carboxamide]	25 to 50
C[C@@H](O)[C@H](NC(=O)c1ncc(-c2cnn3ccc(Cl)cc23)s1)c1cc(NS(=O)(=O)C2CC2)ccn1 [I-271, 5-(5-chloropyrazolo[1,5-a]pyridin-3-yl)-N-((1R,2R)-1-(4-(cyclopropanesulfonamido)pyridin-2-yl)-2-hydroxypropyl)thiazole-2-carboxamide]	5 to 25

The remaining lines, values ahead:

IC50 [nM]	Compound
5 to 25	CCOc1cncc(-c2cnc(C(=O)N[C@H](c3cccc(NS(=O)(=O)C(F)F)c3)[C@@H](C)CO)s2)n1 [I-243, N-((1S,2R)-1-(3-((difluoromethyl)sulfonamido)phenyl)-3-hydroxy-2-methylpropyl)-5-(6-ethoxypyrazin-2-yl)thiazole-2-carboxamide]
≤ 5	CCOc1cncc(-c2cnc(C(=O)N[C@@H](c3cccc(NS(=O)(=O)C(F)F)c3)[C@@H](C)CO)s2)n1 [I-244, N-((1R,2R)-1-(3-((difluoromethyl)sulfonamido)phenyl)-3-hydroxy-2-methylpropyl)-5-(6-ethoxypyrazin-2-yl)thiazole-2-carboxamide]
≤ 5	CCOc1cncc(-c2cnc(C(=O)N[C@@H](c3cccc(NS(=O)(=O)C(F)F)c3)[C@H](C)CO)s2)n1 [I-245, N-((1R,2S)-1-(3-((difluoromethyl)sulfonamido)phenyl)-3-hydroxy-2-methylpropyl)-5-(6-ethoxypyrazin-2-yl)thiazole-2-carboxamide]
5 to 25	CCOc1cncc(-c2cnc(C(=O)N[C@@H](CN3CCOCC3)c3cc(NS(=O)(=O)C4CC4)ncn3)s2)n1 [I-246, (S)-N-(1-(6-(cyclopropanesulfonamido)pyrimidin-4-yl)-2-morpholinoethyl)-5-(6-ethoxypyrazin-2-yl)thiazole-2-carboxamide]
5 to 25	CCOc1cncc(-c2cnc(C(=O)N[C@H](c3cc(NS(=O)(=O)C4CC4)ncn3)[C@@H]3CCOC3)s2)n1 [I-256, N-((S)-(6-(cyclopropanesulfonamido)pyrimidin-4-yl)((S)-tetrahydrofuran-3-yl)methyl)-5-(6-ethoxypyrazin-2-yl)thiazole-2-carboxamide]
5 to 25	CCOc1cncc(-c2cnc(C(=O)N[C@@H](c3cc(NS(=O)(=O)C4CC4)ncn3)[C@@H]3CCOC3)s2)n1 [I-257, N-((R)-(6-(cyclopropanesulfonamido)pyrimidin-4-yl)((S)-tetrahydrofuran-3-yl)methyl)-5-(6-ethoxypyrazin-2-yl)thiazole-2-carboxamide]
5 to 25	CCOc1cncc(-c2cnc(C(=O)N[C@@H](c3cc(NS(=O)(=O)C4CC4)ncn3)[C@H]3CCOC3)s2)n1 [I-258, N-((R)-(6-(cyclopropanesulfonamido)pyrimidin-4-yl)((R)-tetrahydrofuran-3-yl)methyl)-5-(6-ethoxypyrazin-2-yl)thiazole-2-carboxamide]
5 to 25	CCOc1cncc(-c2cnc(C(=O)N[C@H](c3cc(NS(=O)(=O)C4CC4)ncn3)[C@H]3CCOC3)s2)n1 [I-259, N-((S)-(6-(cyclopropanesulfonamido)pyrimidin-4-yl)((R)-tetrahydrofuran-3-yl)methyl)-5-(6-ethoxypyrazin-2-yl)thiazole-2-carboxamide]
5 to 25	O=C(N[C@H](c1ccnc(NS(=O)(=O)C2CC2)n1)[C@H]1CCOC1)c1ncc(-c2cnn3ccc(Cl)cc23)s1 [I-260, 5-(5-chloropyrazolo[1,5-a]pyridin-3-yl)-N-((S)-(2-(cyclopropanesulfonamido)pyrimidin-4-yl)((R)-tetrahydrofuran-3-yl)methyl)thiazole-2-carboxamide]
5 to 25	O=C(N[C@H](c1ccnc(NS(=O)(=O)C2CC2)n1)[C@@H]1CCOC1)c1ncc(-c2cnn3ccc(Cl)cc23)s1 [I-261, 5-(5-chloropyrazolo[1,5-a]pyridin-3-yl)-N-((S)-(2-(cyclopropanesulfonamido)pyrimidin-4-yl)((S)-tetrahydrofuran-3-yl)methyl)thiazole-2-carboxamide]
5 to 25	CCOc1cncc(-c2cnc(C(=O)N[C@H](CO)c3cc(NS(=O)(=O)C4CC4)ccn3)s2)n1 [I-263, (S)-N-(1-(4-(cyclopropanesulfonamido)pyridin-2-yl)-2-hydroxyethyl)-5-(6-ethoxypyrazin-2-yl)thiazole-2-carboxamide]
≤ 5	CCOc1cncc(-c2cnc(C(=O)N[C@@H](c3cc(NS(=O)(=O)C4CC4)ccn3)[C@@H](C)O)s2)n1 [I-269, N-((1S,2R)-1-(4-(cyclopropanesulfonamido)pyridin-2-yl)-2-hydroxypropyl)-5-(6-ethoxypyrazin-2-yl)thiazole-2-carboxamide]
≤ 5	CCOc1cncc(-c2cnc(C(=O)N[C@@H](c3cc(NS(=O)(=O)C4CC4)ccn3)[C@H](C)O)s2)n1 [I-270, N-((1S,2S)-1-(4-(cyclopropanesulfonamido)pyridin-2-yl)-2-hydroxypropyl)-5-(6-ethoxypyrazin-2-yl)thiazole-2-carboxamide]
